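Each compound was tested at five concentrations against cells in 96-well plates for 48 hours. At the TGI there is no net growth.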 Where a SMILES comes first, the peptide text is derived from it. [ ]: non-standard residue; d: D form. The star is where a group is joined. ξ: configuration not given here. ξW = NC(Cc1c[nH]c2ccccc12)C(=O)O; X30 = O=C(O)[C@H]1CCC[C@H]1N*; ξF = NC(Cc1ccccc1)C(=O)O; Boc = CC(C)(C)OC(=O)*; ξK = NCCCCC(N)C(=O)O; ξT = CC(O)C(N)C(=O)O; tBu = CC(C)(C)*

Among the test systems are SNB-75 CNS; KM12 colon; MDA-N; MDA-MB-231 breast; HT29 colon; HOP-62 NSCLC; SK-MEL-5 melanoma; HCT-116 colon; TK-10 renal; ACHN renal; HL-60(TB) leukemia; HOP-92 NSCLC; UACC-62 melanoma; IGROV1 ovarian; NCI-H226 lung.
Common to all, as to experiment: NCI tumour cell line growth inhibition, 48 h

On to `Cc1cccc2c(N)c3cccc(C(=O)NCCN4CCOCC4)c3nc12`, for which the TGI with SNB-75 CNS is 1.32 µM; with KM12 colon it was 5 µM; with MDA-N, 2.91 µM; in the experiment with MDA-MB-231 breast, 4.55 µM; in the experiment on HT29 colon, 3.99 µM; with HOP-62 NSCLC it was 7.55 µM. Moreover, the TGI was determined as 2.46 µM in the experiment on SK-MEL-5 melanoma; 24.9 µM in the experiment on HCT-116 colon; 18.6 µM with TK-10 renal; 13.1 µM in the experiment on ACHN renal; 1.2 µM in the experiment with HL-60(TB) leukemia; 23.2 µM with HOP-92 NSCLC. The TGI is 3.18 µM in the experiment with UACC-62 melanoma and 3.4 µM with IGROV1 ovarian.
As for `COc1cc2c(cc1O)-c1c(OC)c(O)cc3c1C(C2)N(C)CC3` (configuration not stated), the TGI in the experiment on SNB-75 CNS, with KM12 colon, with MDA-N, with MDA-MB-231 breast, in the experiment on HT29 colon and with SK-MEL-5 melanoma was greater than 100 µM in each case. The TGI in the experiment on HCT-116 colon, with NCI-H226 lung, in the experiment on TK-10 renal, in the experiment on ACHN renal, with HL-60(TB) leukemia and with HOP-92 NSCLC was greater than 100 µM in each case. Further, the TGI in the experiment with UACC-62 melanoma and in the experiment with IGROV1 ovarian was greater than 100 µM each time.
For the molecule `CCCCCCCCCCCCCCCCNc1ccc2c(c1)OCCOCCOCCOCCO2`, the TGI in the experiment with SNB-75 CNS was 11.9 µM; in the experiment with KM12 colon it was 4.84 µM; with MDA-N, 12.8 µM; in the experiment on MDA-MB-231 breast it was 11.9 µM; with HT29 colon it was 10.9 µM; in the experiment on HOP-62 NSCLC, 7.28 µM. Moreover, the TGI with SK-MEL-5 melanoma is 5.22 µM; with HCT-116 colon, 11.3 µM; with NCI-H226 lung, 7.07 µM; in the experiment with TK-10 renal, 25.7 µM; with HL-60(TB) leukemia, 6.16 µM; in the experiment with HOP-92 NSCLC, 5.99 µM. In addition, the results for the TGI with UACC-62 melanoma and in the experiment with IGROV1 ovarian were 11.1 µM and 9.41 µM, respectively.
With `Cc1ccc(C(=O)c2[nH]c(Nc3ccc(Cl)cc3)c(C(=S)Nc3ccccc3)c2N)cc1`, the TGI with SNB-75 CNS came to 7.14 µM; in the experiment with KM12 colon, 18.8 µM; in the experiment with MDA-N it was 20.6 µM; with MDA-MB-231 breast, 24.2 µM; in the experiment on HT29 colon, 16.8 µM; with HOP-62 NSCLC, 15.3 µM. Moreover, the TGI in the experiment on HCT-116 colon was 11 µM; in the experiment on NCI-H226 lung, 43.4 µM; with TK-10 renal, 16.8 µM; with ACHN renal, 10.7 µM; with HL-60(TB) leukemia, greater than 100 µM; in the experiment on HOP-92 NSCLC, 28 µM. Also, the TGI with UACC-62 melanoma was found to be 28.1 µM; in the experiment on IGROV1 ovarian, 15 µM.
Regarding `Cc1ccc(C2SC(N)=Nc3c2c(C)nn3C(=O)c2ccc(Cl)cc2)cc1` (configuration not stated), the TGI in the experiment on SNB-75 CNS, with KM12 colon, in the experiment with MDA-N, with MDA-MB-231 breast, in the experiment with HT29 colon and in the experiment on HOP-62 NSCLC was greater than 10 µM throughout. In addition, the TGI in the experiment with SK-MEL-5 melanoma, in the experiment with HCT-116 colon, with NCI-H226 lung, in the experiment on TK-10 renal, in the experiment on ACHN renal and with HL-60(TB) leukemia was greater than 10 µM throughout. Moreover, the TGI with HOP-92 NSCLC, with UACC-62 melanoma and in the experiment with IGROV1 ovarian was greater than 10 µM throughout.
As for `Cc1ccc(N=Nc2c(C)nn(C(=O)CC(=O)Nc3ccc(Cl)cc3)c2C)cc1C`, the TGI is 48.7 µM with SNB-75 CNS; greater than 100 µM in the experiment on KM12 colon; greater than 100 µM in the experiment on MDA-N; greater than 100 µM with MDA-MB-231 breast; greater than 100 µM with HT29 colon; greater than 100 µM in the experiment on HOP-62 NSCLC. Further, the TGI is greater than 100 µM in the experiment with SK-MEL-5 melanoma; greater than 100 µM in the experiment on HCT-116 colon; greater than 100 µM with NCI-H226 lung; greater than 100 µM in the experiment with TK-10 renal; greater than 100 µM with ACHN renal; 56 µM in the experiment on HL-60(TB) leukemia. The TGI in the experiment with HOP-92 NSCLC is 64.3 µM; in the experiment with UACC-62 melanoma it was greater than 100 µM; in the experiment with IGROV1 ovarian, greater than 100 µM.
In the case of `O=C(/C=C/c1ccc(O)cc1)c1cc(O)cc(O)c1`, the TGI in the experiment on SNB-75 CNS turned out to be 39.9 µM; in the experiment with MDA-N, 26.7 µM; in the experiment with MDA-MB-231 breast it was 30.4 µM; in the experiment with HT29 colon, 35 µM; with HOP-62 NSCLC it was 29 µM; in the experiment on SK-MEL-5 melanoma it was 28.9 µM. Moreover, the TGI is 26.3 µM with HCT-116 colon; 50.3 µM in the experiment with NCI-H226 lung; 45.8 µM in the experiment with TK-10 renal; 20.2 µM in the experiment with ACHN renal; greater than 100 µM in the experiment with HL-60(TB) leukemia; 31.9 µM in the experiment on HOP-92 NSCLC. Besides, the TGI worked out at 24.1 µM in the experiment with UACC-62 melanoma and 26.6 µM in the experiment with IGROV1 ovarian.
With `Nc1nc(NCC2(CO)CC(CCc3ccccc3)C2)cc(=O)[nH]1` (configuration not stated), the TGI with SNB-75 CNS, in the experiment on KM12 colon, in the experiment on MDA-N, in the experiment on MDA-MB-231 breast, in the experiment with HT29 colon and with HOP-62 NSCLC was greater than 100 µM throughout. In addition, the TGI in the experiment on SK-MEL-5 melanoma, with HCT-116 colon, with NCI-H226 lung, with HL-60(TB) leukemia, in the experiment on HOP-92 NSCLC and in the experiment with UACC-62 melanoma was greater than 100 µM throughout. Further, the TGI in the experiment on IGROV1 ovarian was greater than 100 µM.
Consider `CC(OC(C)(C)C)C(NC(=O)C(CCCCNC(=O)OC(C)(C)C)NC(=O)C(Cc1c[nH]c2ccccc12)NC(=O)C(N)Cc1ccccc1)C(=O)NC(Cc1ccccc1)C(=O)N[C@@H]1CCC[C@@H]1C(=O)O` (some centres not stated) (H-[ξF][ξW][ξK](Boc)[ξT](tBu)[ξF]-X30), for which the TGI was greater than 100 µM with SNB-75 CNS; 37.2 µM in the experiment on KM12 colon; greater than 100 µM in the experiment with MDA-N; greater than 100 µM with MDA-MB-231 breast; 80.3 µM in the experiment with HT29 colon; greater than 100 µM in the experiment with HOP-62 NSCLC. The TGI is greater than 100 µM with SK-MEL-5 melanoma; greater than 100 µM in the experiment on HCT-116 colon; 52.4 µM in the experiment on NCI-H226 lung; greater than 100 µM in the experiment with ACHN renal; 82.9 µM with HL-60(TB) leukemia; 88.3 µM in the experiment on HOP-92 NSCLC. For the same molecule, the values for the TGI with UACC-62 melanoma and in the experiment with IGROV1 ovarian were 85.5 µM and greater than 100 µM, respectively.
